Reference: patent US11453666B2, “Autotaxin inhibitory compounds” (Cancer Research Technology Limited, priority 2015, dated 2022)
Where two headings read alike, the source gives them in different places.

Target: human recombinant ATX (Homo sapiens, UniProt Q13822)
Experiment: Autotaxin (ATX) activity Quanta Red assay
Assay type: biochemical
Description: The reaction was stopped after 2 hours with a 20 μL addition of Quanta Red Stop solution (1:20 dilution in distilled water). The above-described mixture with DMSO alone was used as a positive control whereas that with DMSO alone without ATX was taken as a negative control.
Fluorescence was determined in a BMG Labtech Pherastar plus plate reader ([…]). Data were analysed using Excel fit software. IC50 values were determined in duplicate.

[1] = read-out: Activity (ATX activity, Quanta Red assay; IC50)
[2] = Table 2: additional compounds tested for ATX activity (Quanta Red Assay), read-out: Activity

Row | IC50 [1] | IC50 [2] | SMILES
1 | 2 nM | – | O=C(CCc1nc2cccnc2n1Cc1ccc(OC(F)(F)F)cc1)NC(CO)c1ccc(F)cc1 (stereo not shown) [Example 15, N-[1-(4-Fluoro-phenyl)-2-hydroxy-ethyl]-3-[3-(4-trifluoromethoxy-benzyl)-3H-imidazo[4,5-b]pyridin-2-yl]-propionamide]
2 | 2 nM | – | O=C(CCc1nc2cccnc2n1Cc1ccc(C(F)(F)F)cc1)N[C@H](Cc1ccccc1)C(=O)O [Example 196, (R)-3-Phenyl-2-{3-[3-(4-trifluoromethyl-benzyl)-3H-imidazo[4,5-b]pyridin-2-yl]-propionylamino}-propionic acid]
3 | 373 nM | – | COc1ccc(Cn2c(CCC(=O)NCc3cccc(F)c3)nc3cccnc32)cc1 [Example 117, N-(3-Fluoro-benzyl)-3-[3-(4-methoxy-benzyl)-3H-imidazo[4,5-b]pyridin-2-yl]-propionamide]
4 | 3 nM | – | NC[C@H](NC(=O)CCc1nc2cccnc2n1Cc1ccc(OC(F)(F)F)cc1)c1ccccc1 [Example 210, N—((R)-2-amino-1-phenyl-ethyl)-3-[3-(4-trifluoromethoxy-benzyl)-3H-imidazo[4,5-b]pyridin-2-yl]-propionamide]
5 | 2 nM | – | C[C@@H]1CN(c2ccc([C@H](C)NC(=O)CCc3nc4cccnc4n3Cc3ccc(OC(F)(F)F)cc3)cc2)CCN1 [Example 174, N-{(S)-1-[4-((R)-3-Methyl-piperazin-1-yl)-phenyl]-ethyl}-3-[3-(4-trifluoromethoxy-benzyl)-3H-imidazo[4,5-b]pyridin-2-yl]-propionamide]
6 | 89 nM | – | C[C@H](NC(=O)CCc1nc2cccnc2n1Cc1ccc(OC(F)(F)F)cc1)C1CC1 [Example 60, N-((S)-1-Cyclopropyl-ethyl)-3-[3-(4-trifluoromethoxy-benzyl)-3H-imidazo[4,5-b]pyridin-2-yl]-propionamide]
7 | – | 596 nM | O=C(CCc1nc2cccnc2n1Cc1ccccc1)NCc1cccc(Cl)c1 [Example 232, 3-(3-Benzyl-3H-imidazo[4,5-b]pyridin-2-yl)-N-(3-chloro-benzyl)-propionamide]
8 | 1 nM | – | O=C(CCc1nc2cccnc2n1Cc1ccc(OC(F)(F)F)cc1)N[C@@H]1c2ccccc2C[C@@H]1O [Example 8, N-((1R,2S)-2-Hydroxy-indan-1-yl)-3-[3-(4-trifluoromethoxy-benzyl)-3H-imidazo[4,5-b]pyridin-2-yl]-propionamide]
9 | 71 nM | – | O=C(CCc1nc2cccnc2n1Cc1ccc(OC(F)(F)F)cc1)N[C@@H](Cc1ccccc1)C(=O)O [Example 199, (S)-3-Phenyl-2-{3-[3-(4-trifluoromethoxy-benzyl)-3H-imidazo[4,5-b]pyridin-2-yl]-propionylamino}-propionic acid]
10 | 4 nM | – | O=C(CCc1nc2cccnc2n1Cc1ccc(OC(F)(F)F)cc1)NC(CO)c1ccc(C(F)(F)F)cc1 (stereo not shown) [Example 23, N-[2-Hydroxy-1-(4-trifluoromethyl-phenyl)-ethyl]-3-[3-(4-trifluoromethoxy-benzyl)-3H-imidazo[4,5-b]pyridin-2-yl]-propionamide]
11 | 7 nM | – | Cc1cnc2c(c1)nc(CCC(=O)N[C@@H](C)c1ccc(Cl)cc1)n2Cc1ccc(OC(F)(F)F)cc1 [Example 211, N—[(S)-1-(4-chloro-phenyl)-ethyl]-3-[6-methyl-3-(4-trifluoromethoxy-benzyl)-3H-imidazo[4,5-b]pyridin-2-yl]-propionamide]
12 | – | 29 nM | O=C(CCc1nc2cccnc2n1Cc1ccccc1)NCc1ccc(Cl)cc1 [Example 217, 3-(3-Benzyl-3H-imidazo[4,5-b]pyridin-2-yl)-N-(4-chloro-benzyl)-propionamide]
13 | 476 nM | – | O=C(CCc1nc2cccnc2n1Cc1cccc(OC(F)(F)F)c1)NCc1cccc(OC(F)(F)F)c1 [Example 6, N-(3-Trifluoromethoxy-benzyl)-3-[3-(3-trifluoromethoxy-benzyl)-3H-imidazo[4,5-b]pyridin-2-yl]-propionamide]

More lines, now with the values behind:

Row | SMILES | IC50 [1] | IC50 [2]
14 | CC(NC(=O)CCc1nc2cccnc2n1Cc1ccc(OC(F)(F)F)cc1)C1CCN(C(=O)OC(C)(C)C)CC1 (stereo not shown) [Example 43, 4-(1-{3-[3-(4-Trifluoromethoxy-benzyl)-3H-imidazo[4,5-b]pyridin-2-yl]-propionylamino}-ethyl)-piperidine-1-carboxylic acid tert-butyl ester] | 11 nM | –
15 | C[C@H](NC(=O)CCc1nc2cccnc2n1Cc1ccc(F)c(F)c1)c1ccccn1 [Example 72, 3-[3-(3,4-Difluoro-benzyl)-3H-imidazo[4,5-b]pyridin-2-yl]-N-((S)-1-pyridin-2-yl-ethyl)-propionamide] | 247 nM | –
16 | C[C@H](NC(=O)CCc1cc2cc(F)cnc2n1Cc1ccc(OC(F)(F)F)cc1)c1ccc(F)cc1 [Example 139, N-[(S)-1-(4-Fluoro-phenyl)-ethyl]-3-[5-fluoro-1-(4-trifluoromethoxy-benzyl)-1H-pyrrolo[2,3-b]pyridin-2-yl]-propionamide] | 13 nM | –
17 | C[C@H](NC(=O)CCc1nc2cccnc2n1Cc1ccc(F)c(F)c1)c1ccc(N2CCNC(C(F)(F)F)C2)cc1 (stereo partly drawn) [Example 179, 3-[3-(3,4-Difluoro-benzyl)-3H-imidazo[4,5-b]pyridin-2-yl]-N-{(S)-1-[4-(3-trifluoromethyl-piperazin-1-yl)-phenyl]-ethyl}-propionamide] | 5 nM | –
18 | C[C@H](NC(=O)CCc1nc2cccnc2n1Cc1ccc(F)c(F)c1)c1ccc(F)cc1 [Example 95, 3-[3-(3,4-Difluoro-benzyl)-3H-imidazo[4,5-b]pyridin-2-yl]-N-[(S)-1-(4-fluoro-phenyl)-ethyl]-propionamide] | 26 nM | –
19 | COc1ccc(Cn2c(CCC(=O)NCCc3ccc(SC)cc3)nc3cccnc32)cc1 [Example 221, 3-[3-(4-Methoxy-benzyl)-3H-imidazo[4,5-b]pyridin-2-yl]-N-[2-(4-methylsulfanyl-phenyl)-ethyl]-propionamide] | – | 154 nM
20 | O=C(CCc1nc2cccnc2n1Cc1ccc(F)c(F)c1)NC(CO)c1ccc(F)cc1 (stereo not shown) [Example 50, 3-[3-(3,4-Difluoro-benzyl)-3H-imidazo[4,5-b]pyridin-2-yl]-N-[1-(4-fluoro-phenyl)-2-hydroxy-ethyl]-propionamide] | 22 nM | –
21 | C[C@@H]1CN(c2ccc([C@H](C)NC(=O)CCc3nc4cccnc4n3Cc3ccc(F)c(F)c3)cc2)CCN1 [Example 188, 3-[3-(3,4-Difluoro-benzyl)-3H-imidazo[4,5-b]pyridin-2-yl]-N-{(S)-1-[4-((R)-3-methyl-piperazin-1-yl)-phenyl]-ethyl}-propionamide] | 15 nM | –
22 | CCCCNC(=O)CCc1nc2cccnc2n1Cc1ccccc1 [Example 228, 3-(3-Benzyl-3H-imidazo[4,5-b]pyridin-2-yl)-N-butyl-propionamide] | – | 8810 nM
23 | COc1ccc(Cn2c(CCC(=O)NCCc3ccc(C)cc3)nc3cccnc32)cc1 [Example 108, 3-[3-(4-Methoxy-benzyl)-3H-imidazo[4,5-b]pyridin-2-yl]-N-(2-p-tolyl-ethyl)-propionamide] | 180 nM | –
24 | Cc1ccc([C@H](C)NC(=O)CCc2nc3ccncc3n2Cc2ccc(F)cc2)cc1 [Example 131, 3-[3-(4-Fluoro-benzyl)-3H-imidazo[4,5-c]pyridin-2-yl]-N-((S)-1-p-tolyl-ethyl)-propionamide] | 23 nM | –
25 | O=C(CCc1nc2cccnc2n1Cc1ccc(F)c(F)c1)NC(CCO)c1ccc(F)cc1 (stereo not shown) [Example 48, 3-[3-(3,4-Difluoro-benzyl)-3H-imidazo[4,5-b]pyridin-2-yl]-N-[1-(4-fluoro-phenyl)-3-hydroxy-propyl]-propionamide] | 19 nM | –
